Data as given in patent US9938258B2 (Karyopharm Therapeutics Inc., priority 2012, dated 2018).
Counter-ions that a name gives are not always drawn. Like-named read-outs stand apart in the source and are kept apart here.

Assays:
MS751 cells = experiment: MTT cell proliferation assay, MS751; format: cell-based, human; conditions: Homo sapiens, MS751, MS751 cells, read-out: MTT Assay IC50, MS751
In short: (§1)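 Absorbance at 490 nm of solubilized formazan, produced during roughly 4 h MTT incubation, gave percent inhibition relative to negative control. Compounds spanned eight concentrations between 1 nM and 30 μM on cells plated overnight at 5,000-10,000 per well.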

Z138 cells = experiment: MTT cell proliferation assay, Z138; format: cell-based; conditions: Homo sapiens, Z-138, Z138 cells, read-out: MTT Assay IC50, Z138
In short: as §1

3T3 cells = experiment: MTT cell proliferation assay, 3T3; format: cell-based, mouse; conditions: Mus musculus, NIH3T3, 3T3 cells, read-out: MTT Assay IC50, 3T3
In short: as §1

[1] = eight concentrations 1 nM to 30 μM, incubation approximately 64-72 hours
[2] = approximately 64-72 hours incubation

Row | SMILES | IC50 (MS751 cells; [1]) [µM] | IC50 (Z138 cells; [1]) [µM] | IC50 (3T3 cells; [1]) [µM] | IC50 (MS751 cells; [2]) [µM] | IC50 (Z138 cells; [2]) [µM] | IC50 (3T3 cells; [2]) [µM]
1 | CC(=O)c1ccc(-c2cc(Cl)c3c(c2)CC(CNC(=O)/C=C/c2nccn2C)O3)s1 (stereo not drawn) [Compound 164, (E)-N-((5-(5-acetylthiophen-2-yl)-7-chloro-2,3-dihydrobenzofuran-2-yl)methyl)-3-(1-methyl-1H-imidazol-2-yl)acrylamide] | > 30 | > 30 | > 30 | – | – | –
2 | CC(=O)c1ccc(-c2ccc(Cl)c3c2CC(CNC(=O)/C=C/c2cccnc2)O3)s1 (stereo not drawn) [Compound 173, (E)-N-((4-(5-acetylthiophen-2-yl)-7-chloro-2,3-dihydrobenzofuran-2-yl)methyl)-3-(pyridin-3-yl)acrylamide] | 0.1 to 5 | 0.1 to 5 | 0.1 to 5 | – | – | –
3 | CC(=O)c1ccc(-c2cc(Cl)c3c(c2)CC(CNC(=O)/C=C/c2ccc(C)nc2C)O3)s1 (stereo not drawn) [Compound 174, (E)-N-((5-(5-acetylthiophen-2-yl)-7-chloro-2,3-dihydrobenzofuran-2-yl)methyl)-3-(2,6-dimethylpyridin-3-yl)acrylamide] | > 30 | > 30 | > 30 | – | – | –
4 | CCc1nc(C)c(/C=C/C(=O)NCC2Cc3cc(-c4ccc(C(C)=O)s4)cc(Cl)c3O2)[nH]1 (stereo not drawn) [Compound 177, (E)-N-((5-(5-acetylthiophen-2-yl)-7-chloro-2,3-dihydrobenzofuran-2-yl)methyl)-3-(2-ethyl-4-methyl-1H-imidazol-5-yl)acrylamide] | 0.1 to 5 | 0.1 to 5 | > 30 | – | – | –
5 | C/C=C/C(=O)NCC1Cc2cc(-c3ccc(C(C)=O)s3)cc(Cl)c2O1 (stereo not drawn) [Compound 181, (E)-N-((5-(5-acetylthiophen-2-yl)-7-chloro-2,3-dihydrobenzofuran-2-yl)methyl)but-2-enamide] | > 30 | > 30 | > 30 | – | – | –
6 | CC(=O)c1ccc(-c2cc(Cl)c3c(c2)CC(CNC(=O)/C=C/c2cccnc2C)O3)s1 (stereo not drawn) [Compound 182, (E)-N-((5-(5-acetylthiophen-2-yl)-7-chloro-2,3-dihydrobenzofuran-2-yl)methyl)-3-(2-methylpyridin-3-yl)acrylamide] | 5 to 30 | > 30 | > 30 | – | – | –
7 | CC(=O)c1ccc(-c2cc(Cl)c3c(c2)CC(CNC(=O)/C=C/c2cc(C)[nH]c2C)O3)s1 (stereo not drawn) [Compound 185, (E)-N-((5-(5-acetylthiophen-2-yl)-7-chloro-2,3-dihydrobenzofuran-2-yl)methyl)-3-(2,5-dimethyl-1H-pyrrol-3-yl)acrylamide] | > 30 | > 30 | > 30 | – | – | –
8 | CC(=O)c1ccc(-c2cc(Cl)c3c(c2)CC(CNC(=O)/C=C/c2cn(C)c4ccccc24)O3)s1 (stereo not drawn) [Compound 189, (E)-N-((5-(5-acetylthiophen-2-yl)-7-chloro-2,3-dihydrobenzofuran-2-yl)methyl)-3-(1-methyl-1H-indol-3-yl)acrylamide] | > 30 | > 30 | > 30 | – | – | –
9 | CC(=O)c1ccc(-c2cc(Cl)c3c(c2)CC(CNC(=O)/C=C/c2nc4ccccc4s2)O3)s1 (stereo not drawn) [Compound 190, (E)-N-((5-(5-acetylthiophen-2-yl)-7-chloro-2,3-dihydrobenzofuran-2-yl)methyl)-3-(benzo[d]thiazol-2-yl)acrylamide] | > 30 | > 30 | > 30 | – | – | –
10 | CCn1ccnc1/C=C/C(=O)NCC1Cc2cc(-c3ccc(C(C)=O)s3)cc(Cl)c2O1 (stereo not drawn) [Compound 191, (E)-N-((5-(5-acetylthiophen-2-yl)-7-chloro-2,3-dihydrobenzofuran-2-yl)methyl)-3-(1-ethyl-1H-imidazol-2-yl)acrylamide] | – | – | – | 5 to 30 | 5 to 30 | > 30
11 | CC(=O)c1ccc(-c2cc(Cl)c3c(c2)CC(CNC(=O)/C(C#N)=C/c2cccnc2)O3)s1 (stereo not drawn) [Compound 195, (E)-N-((5-(5-acetylthiophen-2-yl)-7-chloro-2,3-dihydrobenzofuran-2-yl)methyl)-2-cyano-3-(pyridin-3-yl)acrylamide] | – | – | – | 5 to 30 | 5 to 30 | > 30
12 | CC(=O)c1ccc(-c2cc(Cl)c3c(c2)CC(CNC(=O)/C=C/c2coc(C)n2)O3)s1 (stereo not drawn) [Compound 196, (E)-N-((5-(5-acetylthiophen-2-yl)-7-chloro-2,3-dihydrobenzofuran-2-yl)methyl)-3-(2-methyloxazol-4-yl)acrylamide] | – | – | – | > 30 | > 30 | > 30
13 | CC(=O)c1ccc(-c2cc(Cl)c3c(c2)CC(CNC(=O)/C=C/c2csc4ccccc24)O3)s1 (stereo not drawn) [Compound 200, (E)-N-((5-(5-acetylthiophen-2-yl)-7-chloro-2,3-dihydrobenzofuran-2-yl)methyl)-3-(benzo[b]thiophen-3-yl) acrylamide] | – | – | – | > 30 | > 30 | > 30
14 | CC(=O)c1ccc(-c2cc(Cl)c3c(c2)CC(CNC(=O)/C=C/c2nccn2-c2ccccc2)O3)s1 (stereo not drawn) [Compound 201, (E)-N-((5-(5-acetylthiophen-2-yl)-7-chloro-2,3-dihydrobenzofuran-2-yl)methyl)-3-(1-phenyl-1H-imidazol-2-yl)acrylamide] | – | – | – | 5 to 30 | 5 to 30 | 5 to 30
15 | CC(=O)c1ccc(-c2cc(Cl)c3c(c2)CC(CNC(=O)/C=C/c2cnc(C(C)(C)C)s2)O3)s1 (stereo not drawn) [Compound 205, (E)-N-((5-(5-acetylthiophen-2-yl)-7-chloro-2,3-dihydrobenzofuran-2-yl)methyl)-3-(2-tert-butylthiazol-5-yl)acrylamide] | – | – | – | 5 to 30 | 0.1 to 5 | > 30
16 | CC(=O)c1ccc(-c2cc(Cl)c3c(c2)CC(CNC(=O)/C=C/c2csc(-c4ccc(F)cc4)n2)O3)s1 (stereo not drawn) [Compound 206, (E)-N-((5-(5-acetylthiophen-2-yl)-7-chloro-2,3-dihydrobenzofuran-2-yl)methyl)-3-(2-(4-fluorophenyl)thiazol-4-yl)acrylamide] | – | – | – | > 30 | > 30 | > 30
17 | CC(=O)c1ccc(-c2cc(Cl)c3c(c2)CC(CNC(=O)/C=C/c2nccs2)O3)s1 (stereo not drawn) [Compound 207] | – | – | – | > 30 | > 30 | > 30
18 | CC(=O)c1ccc(-c2cc(Cl)c3c(c2)CC(CNC(=O)/C=C/c2c(C)nn(-c4ccc(F)cc4)c2C)O3)s1 (stereo not drawn) [Compound 208, (E)-N-((5-(5-acetylthiophen-2-yl)-7-chloro-2,3-dihydrobenzofuran-2-yl)methyl)-3-(1-(4-fluorophenyl)-3,5-dimethyl-1H-pyrazol-4-yl)acrylamide] | – | – | – | 5 to 30 | 5 to 30 | > 30
19 | CC(=O)c1ccc(-c2cc(Cl)c3c(c2)CC(CNC(=O)/C=C/c2cc(C)n(-c4ccc(Cl)cc4)c2C)O3)s1 (stereo not drawn) [Compound 209, (E)-N-((5-(5-acetylthiophen-2-yl)-7-chloro-2,3-dihydrobenzofuran-2-yl)methyl)-3-(1-(4-chlorophenyl)-2,5-dimethyl-1H-pyrrol-3-yl)acrylamide] | – | – | – | > 30 | > 30 | > 30
20 | CC(=O)c1ccc(-c2cc(Cl)c3c(c2)CC(CNC(=O)/C=C/c2cncc(S(=O)(=O)N(C)C)c2)O3)s1 (stereo not drawn) [Compound 210, (E)-N-((5-(5-acetylthiophen-2-yl)-7-chloro-2,3-dihydrobenzofuran-2-yl)methyl)-3-(5-(N,N-dimethylsulfamoyl)pyridin-3-yl)acrylamide] | – | – | – | 5 to 30 | > 30 | > 30
21 | CC(=O)c1ccc(-c2cc(Cl)c3c(c2)CC(CNC(=O)/C=C/c2c(C)nn(-c4ccccc4)c2Cl)O3)s1 (stereo not drawn) [Compound 211, (E)-N-((5-(5-acetylthiophen-2-yl)-7-chloro-2,3-dihydrobenzofuran-2-yl)methyl)-3-(5-chloro-3-methyl-1-phenyl-1H-pyrazol-4-yl)acrylamide] | – | – | – | > 30 | > 30 | > 30
22 | CC(=O)c1ccc(-c2cc(Cl)c3c(c2)CC(CNC(=O)/C=C/c2[nH]cnc2C)O3)s1 (stereo not drawn) [Compound 212, (E)-N-((5-(5-acetylthiophen-2-yl)-7-chloro-2,3-dihydrobenzofuran-2-yl)methyl)-3-(4-methyl-1H-imidazol-5-yl)acrylamide] | – | – | – | 5 to 30 | 5 to 30 | > 30
23 | CC(=O)c1ccc(-c2cc(Cl)c3c(c2)CC(CNC(=O)/C=C/c2ccn(C)c2)O3)s1 (stereo not drawn) [Compound 213, (E)-N-((5-(5-acetylthiophen-2-yl)-7-chloro-2,3-dihydrobenzofuran-2-yl)methyl)-3-(1-methyl-1H-pyrrol-3-yl)acrylamide] | – | – | – | > 30 | > 30 | > 30
24 | CC(=O)c1ccc(-c2ccc(Cl)c3c2CC(CNC(=O)/C=C/c2ccc(N)nc2)O3)s1 (stereo not drawn) [Compound 218, hydrochloride] | – | – | – | < 0.1 | < 0.1 | 5 to 30
25 | CC(=O)c1ccc(-c2cc(Cl)c3c(c2)CC(CNC(=O)/C=C/Cc2cccnc2)O3)s1 (stereo not drawn) [Compound 222, (E)-N-((5-(5-acetylthiophen-2-yl)-7-chloro-2,3-dihydrobenzofuran-2-yl)methyl)-4-(pyridin-3-yl)but-2-enamide] | – | – | – | 0.1 to 5 | 0.1 to 5 | 5 to 30
26 | CC(=O)c1ccc(-c2cc(Cl)c3c(c2)CC(CNC(=O)/C=C/n2cncn2)O3)s1 (stereo not drawn) [Compound 229, (E)-N-((5-(5-acetylthiophen-2-yl)-7-chloro-2,3-dihydrobenzofuran-2-yl)methyl)-3-(1H-1,2,4-triazol-1-yl)acrylamide] | – | – | – | > 30 | > 30 | > 30
